19 molecules from patent US9376425B2, “Heterocyclic compounds as MDM2 inhibitors for the treatment of cancer” (AMGEN INC., priority 2011, dated 2016) can be followed below.

Where only a bound is given, the exact number is not on record here.

The first assay deals with T1, human MDM2 (GST-hMDM2 aa 1-188), interaction with biotinylated-p53 (aa 1-83) (Homo sapiens, UniProt Q00987).
T1 construct: Amino acid residues 1-188 of human MDM2 were expressed; made in house; host or cells: Escherichia coli
T1 sequence (Q00987 1-188): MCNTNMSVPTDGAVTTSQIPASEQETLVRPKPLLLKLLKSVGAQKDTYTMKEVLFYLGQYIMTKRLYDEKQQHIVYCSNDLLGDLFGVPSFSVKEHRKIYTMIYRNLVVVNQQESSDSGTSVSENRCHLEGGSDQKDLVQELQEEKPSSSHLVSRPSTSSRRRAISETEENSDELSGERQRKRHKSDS
Description: Homogenous Time-Resolved Fluorescence Assay (HTRF1 assay), inhibition of HDM2-p53 interaction. The conditions noted are these: 2.5 nM GST-hMDM2, 5 nM biotinylated-p53, 200 mM KF. The format is binding. As to the method: Homogenous Time-Resolved Fluorescence Assay (HTRF1 Assay)
Residues 1-83 of human p53 were expressed as an amino-terminal AviTag™-TrxA-6xHis fusion protein (biotinylated p53) in E. coli. Each protein was purified from cell paste by affinity chromatography.
Specifically, 10 uL of GST-hMDM2 was incubated with 10 ul of diluted compound (various concentrations, serially diluted) in 10% DMSO for 20 minutes at room temperature. 20 uL of biotinylated-p53 was added to the GST-hMDM2+ compound mixture, and then incubated at room temperature for 60 min. 10 uL of detection buffer consisting of SA-XLent, anti-GST cryptate antibody and KF was added to GST-hMDM2, biotinylated-p53 and compound reaction and left at room temperature to reach equilibrium for >4 hrs. The final concentration of DMSO in the reaction was 2%. Time-resolved fluorescence readings were measured on a microplate multilabel reader. Percentage of inhibition was calculated relative to nutlin-3.
Usually IC50 stands for the concentration needed to halve the response being measured. For the molecule `Cn1c([C@@H]2[C@@H](c3cccc(Cl)c3)O[C@H](CC(=O)O)C(=O)N2CC2CC2)nc2ccccc21.Cn1c([C@H]2[C@H](c3cccc(Cl)c3)O[C@@H](CC(=O)O)C(=O)N2CC2CC2)nc2ccccc21` (mixture of isomers) [Example 6, 2-((2R,5R,6R)-6-(3-Chlorophenyl)-4-(cyclopropylmethyl)-5-(1-methyl-1H-benzo[d]imidazol-2-yl)-3-oxomorpholin-2-yl)acetic acid and 2-((2S,5S,6S)-6-(3-Chlorophenyl)-4-(cyclopropylmethyl)-5-(1-methyl-1H-benzo[d]imidazol-2-yl)-3-oxomorpholin-2-yl)acetic acid], the midpoint of inhibition, the IC50, lay at 46700 nM.

In turn, `O=C1[C@@H](Cc2nnn[nH]2)O[C@H](c2cccc(Cl)c2)[C@@H](c2ccc(Cl)cc2)N1CC1CC1.O=C1[C@H](Cc2nnn[nH]2)O[C@H](c2cccc(Cl)c2)[C@@H](c2ccc(Cl)cc2)N1CC1CC1` (mixture of isomers) [Example 50, (2S,5R,6R)-6-(3-Chlorophenyl)-5-(4-chlorophenyl)-4-(cyclopropylmethyl)-2-((tetrazol-5-yl)methyl)morpholin-3-one and (2R,5R,6R)-6-(3-Chlorophenyl)-5-(4-chlorophenyl)-4-(cyclopropylmethyl)-2-((tetrazol-5-yl)methyl)morpholin-3-one] showed an IC50 of 700 nM. Consider `O=C(O)C[C@@H]1O[C@H](c2cccc(Cl)c2)[C@@H](c2nc3ccccc3s2)N(CC2CC2)C1=O` (racemic) [Example 3, 2-((2S,5S,6R)-5-(Benzo[d]thiazol-2-yl)-6-(3-chlorophenyl)-4-(cyclopropylmethyl)-3-oxomorpholin-2-yl)acetic acid and 2-((2R,5R,6S)-5-(Benzo[d]thiazol-2-yl)-6-(3-chlorophenyl)-4-(cyclopropylmethyl)-3-oxomorpholin-2-yl)acetic acid], for which the IC50 was 23500 nM. On to `O=C(O)C[C@H]1O[C@H](c2cccc(Cl)c2)[C@@H](c2nc3ccccc3s2)N(CC2CC2)C1=O` (racemic) [Example 4, 2-((2R,5S,6R)-5-(Benzo[d]thiazol-2-yl)-6-(3-chlorophenyl)-4-(cyclopropylmethyl)-3-oxomorpholin-2-yl)acetic acid and 2-((2S,5R,6S)-5-(Benzo[d]thiazol-2-yl)-6-(3-chlorophenyl)-4-(cyclopropylmethyl)-3-oxomorpholin-2-yl)acetic acid], for which 25000 nM corresponded to half-maximal inhibition (IC50). For `Cn1c([C@@H]2[C@@H](c3cccc(Cl)c3)O[C@@H](CC(=O)O)C(=O)N2CC2CC2)nc2ccccc21` (racemic) [Example 5, 2-((2S,5R,6R)-6-(3-Chlorophenyl)-4-(cyclopropylmethyl)-5-(1-methyl-1H-benzo[d]imidazol-2-yl)-3-oxomorpholin-2-yl)acetic acid and 2-((2R,5S,6S)-6-(3-Chlorophenyl)-4-(cyclopropylmethyl)-5-(1-methyl-1H-benzo[d]imidazol-2-yl)-3-oxomorpholin-2-yl)acetic acid], the half-inhibitory concentration (IC50) was 39500 nM.

Take `O=C(O)C[C@H]1O[C@H](c2cccc(Cl)c2)[C@@H](c2cc3ccccc3[nH]2)N(CC2CC2)C1=O` (single isomer, unassigned) [Example 1, 2-((2R,5R,6R)-6-(3-Chlorophenyl)-4-(cyclopropylmethyl)-5-(1H-indol-2-yl)-3-oxomorpholin-2-yl)acetic acid or 2-((2S,5R,6R)-6-(3-Chlorophenyl)-4-(cyclopropylmethyl)-5-(1H-indol-2-yl)-3-oxomorpholin-2-yl)acetic acid]: the concentration for half-maximal inhibition (IC50) was 33400 nM. Still for that read-out and setting: next, `O=C(O)C[C@@H]1O[C@H](c2cccc(Cl)c2)[C@@H](c2cc3ccccc3[nH]2)N(CC2CC2)C1=O` (single isomer, unassigned) [Example 2, 2-((2S,5R,6R)-6-(3-Chlorophenyl)-4-(cyclopropylmethyl)-5-(1H-indol-2-yl)-3-oxomorpholin-2-yl)acetic acid or 2-((2R,5R,6R)-6-(3-Chlorophenyl)-4-(cyclopropylmethyl)-5-(1H-indol-2-yl)-3-oxomorpholin-2-yl)acetic acid]: 31400 nM; `O=C(O)C[C@@H]1O[C@H](c2cccc(Cl)c2)[C@@H](c2ccc(Cl)cn2)N(CC2CC2)C1=O` (single isomer, unassigned) [Example 7]: 1100 nM; `O=C(O)C[C@H]1OC(c2cccc(Cl)c2)[C@@H](c2ccc(Cl)cn2)N(CC2CC2)C1=O` (single isomer, unassigned) [Example 8]: 1600 nM. Regarding `C[C@H](C1CCCCC1)N1C(=O)[C@H](CC(=O)O)O[C@H](c2cccc(Cl)c2)[C@H]1c1ccc(Cl)cc1` (single isomer, unassigned) [Example 18, 2-((2S,5R,6R)-6-(3-chlorophenyl)-5-(4-chlorophenyl)-4-((R)-1-cyclohexylethyl)-3-oxomorpholin-2-yl)acetic acid or 2-((2S,5R,6R)-6-(3-Chlorophenyl)-5-(4-chlorophenyl)-4-((S)-1-cyclohexylethyl)-3-oxomorpholin-2-yl)acetic acid], inhibition was half-maximal at 100 nM (IC50).

For the next assay, the target named is T2, human MDM2 (GST-hMDM2 1-188), interaction with biotinylated-p53 (1-83) (Homo sapiens, UniProt Q00987).
T2 construct: Amino acid residues 1-188 of human MDM2 were expressed; made in house; host or cells: Escherichia coli
T2 sequence (Q00987 1-188): as above
In words: improved HTRF assay (HTRF2 assay), inhibition of HDM2-p53 interaction. Type of assay: binding. The conditions noted are these: 0.2 nM GST-hMDM2, 0.5 nM biotinylated-p53, 100 mM KF. The gist of the method:
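Time-resolved fluorescence (HTRF) read after >4 h equilibration with SA-XLent/anti-GST cryptate/KF detection reagents. Reaction: compound plus GST-hMDM2 for 20 min at room temperature, then E. coli-expressed biotinylated p53 residues 1-83 for 60 min, 2% DMSO final. Inhibition expressed versus nutlin-3.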
Background: In TR-FRET formats the signal depends on donor and acceptor labels being close together.
For `CC[C@@H](CS(=O)(=O)C(C)(C)C)N1C(=O)[C@@H](CC(=O)NC#N)O[C@H](c2cccc(Cl)c2)[C@H]1c1ccc(Cl)cc1` [Example 345, 2-((2R,5R,6R)-4-((S)-1-(tert-Butylsulfonyl)butan-2-yl)-6-(3-chlorophenyl)-5-(4-chlorophenyl)-3-oxomorpholin-2-yl)-N-cyanoacetamide], the IC50 is less than 1 nM. `CC[C@@H](CS(=O)(=O)C(C)(C)C)N1C(=O)[C@@H](CNC(=O)OC(C)(C)C)O[C@H](c2cccc(Cl)c2)[C@H]1c1ccc(Cl)cc1` [Example 377, tert-Butyl (((2R,5R,6R)-4-((S)-1-(tert-utylsulfonyl)butan-2-yl)-6-(3-chlorophenyl)-5-(4-chlorophenyl)-3-oxomorpholin-2-yl)methyl)carbamate and tert-butyl (((2S,5R,6R)-4-((S)-1-(tert-butylsulfonyl)butan-2-yl)-6-(3-chlorophenyl)-5-(4-chlorophenyl)-3-oxomorpholin-2-yl)methyl)carbamate] yielded an IC50 of 86 nM. On the same count and under the same terms, next, `CC[C@@H](CS(=O)(=O)C(C)(C)C)N1C(=O)[C@@H](CC#N)O[C@H](c2cccc(Cl)c2)[C@H]1c1ccc(Cl)cc1` [Example 381, 2-((2R,5R,6R)-4-((S)-1-(tert-Butylsulfonyl)butan-2-yl)-6-(3-chlorophenyl)-5-(4-chlorophenyl)-3-oxomorpholin-2-yl)acetonitrile]: 66 nM. Regarding `CC[C@@H](CS(=O)(=O)C(C)(C)C)N1C(=O)[C@@H](Cc2nnn[nH]2)O[C@H](c2cccc(Cl)c2)[C@H]1c1ccc(Cl)cc1` [Example 382, (2R,5R,6R)-2-((1H-Tetrazol-5-yl)methyl)-4-((S)-1-(tert-butylsulfonyl)butan-2-yl)-6-(3-chlorophenyl)-5-(4-chlorophenyl)morpholin-3-one], the concentration for half-maximal inhibition (IC50) was less than 1 nM. For the molecule `CC[C@@H](CS(=O)(=O)C(C)(C)C)N1C(=O)[C@H](Cc2nnn[nH]2)O[C@H](c2cccc(Cl)c2)[C@H]1c1ccc(Cl)cc1` [Example 383, (2S,5R,6R)-2-((1H-Tetrazol-5-yl)methyl)-4-((S)-1-(tert-butylsulfonyl)butan-2-yl)-6-(3-chlorophenyl)-5-(4-chlorophenyl)morpholin-3-one], the half-inhibitory concentration (IC50) was less than 1 nM. In turn, `CC(C)(C)S(=O)(=O)C[C@H](C1CC1)N1C(=O)[C@H](Cc2ccno2)O[C@H](c2cccc(Cl)c2)[C@H]1c1ccc(Cl)cc1` [Example 384, (2S,5R,6R)-4-((S)-2-(tert-Butylsulfonyl)-1-cyclopropylethyl)-6-(3-chlorophenyl)-5-(4-chlorophenyl)-2-(isoxazol-5-ylmethyl)morpholin-3-one] yielded a 50% inhibitory concentration (IC50) of 13 nM.

In the case of `Cn1ccnc1C[C@H]1O[C@H](c2cccc(Cl)c2)[C@@H](c2ccc(Cl)cc2)N([C@H](CS(=O)(=O)C(C)(C)C)C2CC2)C1=O` [Example 402, (2R,5R,6R)-4-((S)-2-(tert-Butylsulfonyl)-1-cyclopropylethyl)-6-(3-chlorophenyl)-5-(4-chlorophenyl)-2-((1-methyl-1H-imidazol-2-yl)methyl)morpholin-3-one], the half-inhibitory concentration (IC50) was 29 nM. Take “(2R,5R,6R)-4-((S)-2-(tert-Butylsulfonyl)-1-cyclopropylethyl)-6-(3-chlorophenyl)-5-(4-chlorophenyl)-2-((3-methyl-1H-1,2,4-triazol-5-yl)methyl)morpholin-3-one and (2S,5R,6R)-4-((S)-2-(tert-butylsulfonyl)-1-cyclopropylethyl)-6-(3-chlorophenyl)-5-(4-chlorophenyl)-2-((3-methyl-1H-1,2,4-triazol-5-yl)methyl)morpholin-3-one [Example 391]”: inhibition was half-maximal at 4 nM (IC50).

For the molecule “Methyl 2-((2R,5R,6R)-6-(3-chlorophenyl)-5-(4-chlorophenyl)-4-((S)-1-((2-(dimethylamino)ethyl)sulfonyl)butan-2-yl)-3-oxomorpholin-2-yl)acetate and methyl 2-((2S,5R,6R)-6-(3-chlorophenyl)-5-(4-chlorophenyl)-4-((S)-1-((2-(dimethylamino)ethyl)sulfonyl)butan-2-yl)-3-oxomorpholin-2-yl)acetate [Example 246]”, half-maximal inhibition (IC50) required 6 nM.
